The text below walks through data of the NIST ThermoML archive (doi:10.1016/j.jct.2005.06.003).

The structures appear in SMILES notation. Numbers after ± are expanded uncertainties.

By vapor or sublimation pressure is commonly meant the equilibrium pressure above the liquid or solid.

For the data set the following is noted: Liquid, Closed cell (Static) method.

`ClC(Cl)=C(Cl)Cl` [tetrachloroethene]: the “vapor or sublimation pressure” value (283.15 K) was 1.023 ± 0.022 kPa; the “vapor or sublimation pressure” value (288.15 K) was determined as 1.4 ± 0.022 kPa; the “vapor or sublimation pressure” value (293.15 K) was 1.861 ± 0.022 kPa; the “vapor or sublimation pressure” value (298.15 K) is 2.462 ± 0.023 kPa; the “vapor or sublimation pressure” value (303.15 K) is 3.205 ± 0.023 kPa; the “vapor or sublimation pressure” value (308.15 K) is 4.117 ± 0.024 kPa. Moreover, the “vapor or sublimation pressure” value reads like this: (313.15 K) 5.253 ± 0.025 kPa; (318.15 K) 6.621 ± 0.027 kPa; (323.15 K) 8.286 ± 0.028 kPa.

In the case of `C1CCOC1` [tetrahydrofuran], the “vapor or sublimation pressure” value (283.15 K) is 10.73 ± 0.032 kPa; the “vapor or sublimation pressure” value (288.15 K) is given as 13.67 ± 0.036 kPa; the “vapor or sublimation pressure” value (293.15 K) is given as 17.25 ± 0.041 kPa; the “vapor or sublimation pressure” value (298.15 K) is 21.6 ± 0.047 kPa; the “vapor or sublimation pressure” value (303.15 K) amounted to 26.81 ± 0.054 kPa; the “vapor or sublimation pressure” value (308.15 K) came out at 32.94 ± 0.065 kPa. Moreover, the “vapor or sublimation pressure” value runs as follows: (313.15 K) 40.21 ± 0.077 kPa; (318.15 K) 48.68 ± 0.091 kPa; (323.15 K) 58.54 ± 0.11 kPa.

On to `ClC(Cl)C(Cl)Cl` [1,1,2,2-tetrachloroethane], for which the “vapor or sublimation pressure” value runs as follows: (283.15 K) 0.263 ± 0.02 kPa; (288.15 K) 0.373 ± 0.02 kPa; (293.15 K) 0.521 ± 0.021 kPa; (298.15 K) 0.711 ± 0.021 kPa; (303.15 K) 0.98 ± 0.022 kPa; (308.15 K) 1.289 ± 0.022 kPa. Also, the “vapor or sublimation pressure” value is recorded as 1.701 ± 0.022 kPa (313.15 K), 2.236 ± 0.023 kPa (318.15 K) and 2.86 ± 0.023 kPa (323.15 K).
